Calls of active or inactive are those of the source. The calls are words filed in the database; no cut-off is given here.
How the values were obtained:
[1] = test system: BMDM; assay: Antiinflammatory activity in LPS-induced in C57 mouse BMDM cells assessed as reduction in IL-12 mRNA expression at 20 uM incubated for 12 hrs by qRT-PCR analysis; format: functional, cell-based
[2] = test system: BMDM; assay: Antiinflammatory activity in LPS-induced in C57 mouse BMDM cells assessed as reduction in TNFalpha mRNA expression at 20 uM incubated for 12 hrs by qRT-PCR analysis; format: functional, cell-based
[3] = test system: BMDM; assay: Antiinflammatory activity in LPS-induced in C57 mouse BMDM cells assessed as reduction in TNFalpha level by ELISA; format: functional, cell-based
[4] = test system: BMDM; assay: Antiinflammatory activity in LPS-induced in C57 mouse BMDM cells assessed as reduction in IL-6 level by ELISA; format: functional, cell-based
[5] = test system: BMDM; assay: Antiinflammatory activity in LPS-induced in C57 mouse BMDM cells assessed as reduction in IFN-gamma level at 5 to 20 uM by ELISA (Rvb < 7.8 pg/ml); format: functional; details: dose 5-20 µM
[6] = test system: BMDM; assay: Antiinflammatory activity in LPS-induced in C57 mouse BMDM cells assessed as reduction in IFN-gamma level at 10 to 20 uM by ELISA (Rvb < 7.8 pg/ml); format: functional; details: dose 10-20 µM

In the case of `C=C(C(=O)O)[C@H]1CC2=C(C(=O)O)CCC[C@]2(C)[C@@H](OC(C)=O)C1`, the inhibition [1] is reported as “Active” and the inhibition [2] is reported as “Active”.
`C=C(C(=O)O)[C@H]1CC2=C(C)[C@H](OCC)CC[C@]2(C)[C@@H](OC(C)=O)C1` was tested, and the inhibition [1] was “Active” and the inhibition [2] was “Active”.
`C=C(C(=O)O)[C@@H]1C[C@H](OC(C)=O)[C@@]2(C)CCCC(=C)[C@]2(O)C1` was tested, and the inhibition [1] was “Active”, the inhibition [2] was “Active” and the inhibition [3] was “Dose-Dependent Effect”. The inhibition [4] was “Dose-Dependent Effect”, the Activity [5] was less than 7.8 pg/mL and the inhibition [5] was “Dose-Dependent Effect”.
`C=C(C(=O)O)[C@@H]1CC[C@@]2(C)CCC[C@@](C)(O)[C@@H]2C1` was tested, and the inhibition [1] was “Active” and the inhibition [2] was “Active”.
With `CC(=O)O[C@H]1C[C@@H]([C@](O)(CO)C(=O)O)CC2=C(C)CCC[C@@]21C` the inhibition [1] was “Active” and the inhibition [2] was “Active”.
For `C=C(C(=O)O)[C@H]1C=C2C(C)=CCC[C@]2(C)[C@@H](O)C1`, the inhibition [1] was “Active”, the inhibition [2] was “Active” and the inhibition [3] was “Dose-Dependent Effect”. For the same compound, the inhibition [4] was “Dose-Dependent Effect”, the Activity [5] was less than 7.8 pg/mL and the inhibition [5] was “Dose-Dependent Effect”.
In the case of `C=C(C(=O)O)[C@H]1C=C2C(C)=CCC[C@]2(C)[C@@H](OC(C)=O)C1`, the inhibition [1] is reported as “Active” and the inhibition [2] is reported as “Active”.
For `C[C@]12CCC(=O)C=C1[C@H](O)[C@H]([C@](C)(O)CO)CC2`, the inhibition [1] was “Active”, the inhibition [2] was “Active” and the inhibition [3] was “Dose-Dependent Effect”. For the same compound, the inhibition [4] was “Dose-Dependent Effect”, the Activity [5] was less than 7.8 pg/mL and the inhibition [5] was “Dose-Dependent Effect”.
In the case of `C=C(C(=O)O)[C@H]1CC2=C(C)C(=O)CC[C@]2(C)[C@@H](O)C1`, the inhibition [1] is reported as “Active” and the inhibition [2] is reported as “Active”.
With `C=C(C(=O)O)[C@H]1CC2=C(C)CCC[C@]2(C)[C@@H](O)C1` the inhibition [1] was “Active”, the inhibition [2] was “Active” and the Activity [6] was less than 7.8 pg/mL. For the same compound, the inhibition [6] was “Dose-Dependent Effect”, the inhibition [3] was “Dose-Dependent Effect” and the inhibition [4] was “Dose-Dependent Effect”.
For `C=C(C(=O)O)[C@H]1CC2=C(CO)CCC[C@]2(C)[C@@H](OC(C)=O)C1`, the inhibition [1] was “Active” and the inhibition [2] was “Active”.
`C=C(C(=O)O)[C@H]1CC2=C(C)[C@@H](O)CC[C@]2(C)[C@@H](OC(C)=O)C1` was tested, and the inhibition [1] was “Active” and the inhibition [2] was “Active”.
In the case of `C=C(C(=O)O)[C@H]1CC2=C(C=O)CCC[C@]2(C)[C@@H](O)C1`, the inhibition [1] is reported as “Active” and the inhibition [2] is reported as “Active”.
With `C=C(C(=O)O)[C@@H]1C[C@H](OC(C)=O)[C@@]2(C)CCCC(=C)[C@@]2(O)C1` the inhibition [1] was “Active” and the inhibition [2] was “Active”.
`C=C(C(=O)O)[C@H]1CC2=C(C)CCC[C@]2(C)[C@@H](OC(C)=O)C1` was tested, and the inhibition [1] was “Active” and the inhibition [2] was “Active”.
With `CC(=O)O[C@H]1C[C@@H]([C@@](O)(CO)C(=O)O)CC2=C(C)CCC[C@@]21C` the inhibition [1] was “Active”, the inhibition [2] was “Active” and the Activity [6] was less than 7.8 pg/mL. For the same compound, the inhibition [6] was “Dose-Dependent Effect”, the inhibition [3] was “Dose-Dependent Effect” and the inhibition [4] was “Dose-Dependent Effect”.
In the case of `C=C(C(=O)O)[C@H]1CC2=C(C)[C@H](O)CC[C@]2(C)[C@@H](OC(C)=O)C1`, the inhibition [1] is reported as “Active” and the inhibition [2] is reported as “Active”.
`C=C(C(=O)O)[C@H]1CC2=C(C)C(=O)CC[C@]2(C)[C@@H](OC(C)=O)C1` was tested, and the inhibition [1] was “Active”, the inhibition [2] was “Active” and the inhibition [3] was “Dose-Dependent Effect”. For the same compound, the inhibition [4] was “Dose-Dependent Effect”, the Activity [5] was less than 7.8 pg/mL and the inhibition [5] was “Dose-Dependent Effect”.
For `C=C(C(=O)O)[C@@H]1C[C@H](O)[C@@]2(C)CCCC(=C)[C@]2(O)C1`, the inhibition [1] was “Active” and the inhibition [2] was “Active”.
For `C=C(C(=O)O)[C@H]1CC2=C(C)[C@H](OC)CC[C@]2(C)[C@@H](OC(C)=O)C1`, the inhibition [1] was “Active” and the inhibition [2] was “Active”.

— ChEMBL document CHEMBL4834449, “Anti-inflammatory Eudesmane Sesquiterpenoids from Artemisia hedinii” (2021)
